The values below come from patent US8318731B2, “Pyrrolopyrimidines” (Janssen Pharmaceutica NV, priority 2007, dated 2012).

Bounds are passed on as bounds.

Series [1] has as its target T1, PLK4 (h) (Homo sapiens, UniProt O00444).
T1 sequence (O00444 1-970): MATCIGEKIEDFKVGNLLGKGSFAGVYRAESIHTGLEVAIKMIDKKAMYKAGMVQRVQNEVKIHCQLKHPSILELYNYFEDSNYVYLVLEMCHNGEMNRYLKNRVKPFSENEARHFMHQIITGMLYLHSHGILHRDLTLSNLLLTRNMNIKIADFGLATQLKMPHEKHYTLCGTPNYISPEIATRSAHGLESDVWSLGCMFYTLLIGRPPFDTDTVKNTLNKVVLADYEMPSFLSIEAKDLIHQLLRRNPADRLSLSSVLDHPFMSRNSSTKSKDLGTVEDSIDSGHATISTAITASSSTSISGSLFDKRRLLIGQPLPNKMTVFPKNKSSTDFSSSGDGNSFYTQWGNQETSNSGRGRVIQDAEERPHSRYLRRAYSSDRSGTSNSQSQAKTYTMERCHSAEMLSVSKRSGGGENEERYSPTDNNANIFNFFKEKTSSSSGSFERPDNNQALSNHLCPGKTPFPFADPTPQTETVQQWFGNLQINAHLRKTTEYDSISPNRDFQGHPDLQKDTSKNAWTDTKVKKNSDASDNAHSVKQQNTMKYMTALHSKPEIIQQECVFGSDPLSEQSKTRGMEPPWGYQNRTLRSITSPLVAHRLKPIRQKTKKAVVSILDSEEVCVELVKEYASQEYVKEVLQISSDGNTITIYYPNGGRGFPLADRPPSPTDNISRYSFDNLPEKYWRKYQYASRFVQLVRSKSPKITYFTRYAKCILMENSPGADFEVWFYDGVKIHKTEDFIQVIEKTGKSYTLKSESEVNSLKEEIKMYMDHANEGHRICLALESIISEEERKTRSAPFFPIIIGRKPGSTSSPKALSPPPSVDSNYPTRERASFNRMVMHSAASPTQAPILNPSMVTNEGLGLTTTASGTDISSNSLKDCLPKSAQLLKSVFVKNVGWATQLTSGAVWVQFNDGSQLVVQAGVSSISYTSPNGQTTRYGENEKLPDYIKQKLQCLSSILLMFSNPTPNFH
Kind of series: PLK-4 human kinase scintillation proximity assay (SPA). The class given is biochemical. The note with it: 1 μM ATP, 60 minutes at r.t., read-out: PLK4 pIC50 (converted). The essentials: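 Human PLK4 (19 μg/ml) reacted with 10 μM biotinylated peptide, 1 μM ATP plus 2 nM [γ-33P]ATP in HEPES pH 8.0 with MgCl2, NaCl, NaF and DTT for 60 min at r.t. After an EDTA stop, phosphorylated substrate was captured on streptavidin PVT SPA beads and scintillation imaged.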

Series [2] concerns HCT-116. Kind of series: Cellular proliferation assay (Alamar blue), HCT-116. It counts as cell-based. The note with it: Homo sapiens; HCT-116 cells; 10% FCS; 72 h with compound; Alamar blue 4 h; read-out: pIC50 HCT-116 (converted). The procedure, abridged: (§1)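 10% FCS, 37° C., 5% CO2; seed, 24 h no compound; 72 h compound; Alamar blue (resazurin 9 μg/ml, ferro-/ferricyanide 90 μM each) 4 h HCT-116, 6 h U87-MG, 24 h PC3/A2780; fluorescence 544/590 nm; normalised to controls.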
In general terms: Resazurin is reduced to fluorescent resorufin, in cell work by metabolically active cells.

The subject of series [3] is H1299. Kind of series: Cellular proliferation assay (Alamar blue), H1299. The note with it: 10% FCS, 72 h with compound, Alamar blue 4 h; for IC50: Homo sapiens, NCI-H1299, H1299 cells, read-out: pIC50 H1299 (converted). The class given is cell-based. The essentials:
(§2)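 Viable cell number is determined by Alamar blue conversion after cells are treated with compound for 72 hours, following 24 hours of growth without compound in 10% FCS. The effect is calculated against control cells.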

Series [4] concerns U87-MG. Kind of series: Cellular proliferation assay (Alamar blue), U87-MG. The note with it: Homo sapiens, U-87 MG; U87-MG cells; 10% FCS; 72 h with compound; Alamar blue 6 h; read-out: pIC50 U87MG (converted). The class given is cell-based. The essentials:
as §1

For series [5], the system named is A2780. The series can be described thus: Cellular proliferation assay (Alamar blue), A2780. It counts as cell-based. The note with it: 10% FCS, 72 h with compound, Alamar blue 24 h; for IC50: Homo sapiens, A2780, A2780 cells, read-out: pIC50 A2780 (converted). The procedure, abridged:
as §1

Series [6] relates to PC3. Kind of series: Cellular proliferation assay (Alamar blue), PC3. The note with it: 10% FCS, 72 h with compound, Alamar blue 24 h; for IC50: Homo sapiens, PC-3, PC-3 cells, read-out: pIC50 PC-3 (converted). It counts as cell-based. The procedure, abridged: as §1
The subject of series [7] is MDA-MB-231. The series can be described thus: Cellular proliferation assay (Alamar blue), MDA-MB-231. It counts as cell-based. The note with it: 10% FCS, 72 h with compound, Alamar blue 24 h; for IC50: Homo sapiens, MDA-MB-231, MDA-MB-231 cells, read-out: pIC50 MDA/MB231 (converted). The procedure, abridged:
as §2

Consider `COc1ccc2cc1OCC(=O)N(C)CCCN(C)Cc1c[nH]c3ncnc(c13)N2` [Compound 7], for which the melting point worked out at 267.9 °C. For the same molecule, the IC50 in series [1] was 0.0398 µM. In series [2], the IC50 is 0.501 µM. In addition, the IC50 in series [3] was 1 µM. In addition, in series [4], the IC50 was 1.26 µM. Moreover, the IC50 in series [5] was 0.631 µM. The IC50 in series [6] was 2 µM. Also, the IC50 in series [7] was 1.58 µM.
Consider `COc1ccc2cc1OCC(=O)N(C)CCN(C)Cc1c[nH]c3ncnc(c13)N2` [Compound 10], for which the melting point stood at 249.3 °C. The IC50 in series [1] was 0.126 µM. The IC50 in series [2] is greater than 10 µM. In addition, the IC50 in series [3] was greater than 10 µM. In addition, the IC50 in series [4] was greater than 10 µM. For the same molecule, in series [5], the IC50 is greater than 10 µM. Also, the IC50 in series [6] was greater than 10 µM. Moreover, the IC50 in series [7] is greater than 10 µM.
In turn, `CCOCCOc1ccc2cc1OCC(=O)N(C)CCCN(C)Cc1c[nH]c3ncnc(c13)N2` [Compound 70] had a melting point of 237.8 °C. In series [1], the IC50 is 0.0251 µM. The IC50 in series [2] was 0.1 µM. In addition, in series [3], the IC50 was 0.501 µM. For the same molecule, the IC50 in series [4] is 1.58 µM. Also, the IC50 in series [5] was 0.0794 µM. Further, in series [6], the IC50 was 3.98 µM. Further, the IC50 in series [7] is 2.51 µM.
`CCOCCOc1ccc2cc1OCC(=O)N(C)CCCNCc1c[nH]c3ncnc(c13)N2` [Compound 75] yielded a melting point of 237.4 °C. In addition, the IC50 in series [1] was 0.0398 µM. In addition, in series [2], the IC50 was 0.794 µM. In addition, the IC50 in series [3] is greater than 10 µM. Further, in series [4], the IC50 was greater than 10 µM. In series [5], the IC50 is 0.631 µM. Besides, the IC50 in series [6] was greater than 10 µM. In addition, the IC50 in series [7] was greater than 10 µM.
On to `COc1ccc(OCCCOc2ccc3cc2OCC(=O)N(C)CCCN(C)Cc2c[nH]c4ncnc(c24)N3)cc1` [Compound 78], for which the melting point worked out at 222.2 °C. Moreover, in series [1], the IC50 was 0.0501 µM. The IC50 in series [2] was 1.26 µM. In addition, in series [3], the IC50 is 2.51 µM. Also, the IC50 in series [4] is 3.98 µM. In addition, in series [5], the IC50 was 1.26 µM. Besides, in series [6], the IC50 is 5.01 µM. In series [7], the IC50 was 6.31 µM.
Molecule `CN1CCCN(C)C(=O)COc2cc(ccc2OCCNc2ccc(Cl)cc2)Nc2ncnc3[nH]cc(c23)C1` [Compound 79] yielded a melting point of 269.3 °C. Besides, the IC50 in series [1] is 0.1 µM. In series [2], the IC50 was 0.251 µM. For the same molecule, the IC50 in series [3] is 0.794 µM. Further, the IC50 in series [4] was 3.16 µM. In addition, the IC50 in series [5] is 0.2 µM. For the same molecule, in series [6], the IC50 is 3.98 µM. The IC50 in series [7] was 5.01 µM.
Molecule `CCOCCOc1ccc2cc1OCC(=O)N(C)CCCN(C)Cc1cn(C)c3ncnc(c13)N2` [Compound 81] gave a melting point of 221 °C. Besides, the IC50 in series [1] was 0.0794 µM. Besides, the IC50 in series [2] is 0.251 µM. Further, the IC50 in series [3] is 0.631 µM. For the same molecule, the IC50 in series [4] is 0.501 µM. In addition, in series [5], the IC50 was 0.2 µM. The IC50 in series [6] was greater than 10 µM. For the same molecule, in series [7], the IC50 was 2 µM.
In turn, `CN1CCCN(C)C(=O)COc2cc(ccc2OCCN(C)c2nccs2)Nc2ncnc3[nH]cc(c23)C1` [Compound 157] registered a melting point of 232.2 °C. Besides, the IC50 in series [2] is 0.501 µM. In series [3] (H1299 cells), the “pIC50 H1299” value was found to be 6.00. Besides, the IC50 in series [3] is 1.26 µM. Further, in series [4], the IC50 was 1 µM. Besides, in series [5] (A2780 cells), the “pIC50 A2780” value is listed as 6.4. Besides, the IC50 in series [5] was 0.501 µM. Besides, the IC50 in series [6] is 3.16 µM. Further, the “pIC50 PC-3” value in series [6] (PC-3 cells) was found to be 5.6. The IC50 in series [7] is 3.16 µM. Moreover, the “pIC50 MDA/MB231” value in series [7] (MDA-MB-231 cells) was 5.6.

For orientation: melting point means the temperature, or range, at which the solid turns liquid.
